The results in this text go back to PubChem BioAssay (NCI).

Holding throughout (experiment): NCI-60 cell line screen, 48 h
Assay [1] concerns ACHN renal.
For assay [2], the system named is NCI-H522 lung.
The subject of assay [3] is T-47D breast.
Assay [4] concerns HT29 colon.
The test system of assay [5] is RPMI-8226 leukemia.
For assay [6], the system named is OVCAR-8 ovarian.
Assay [7] relates to HCT-15 colon.
Assay [8] concerns IGROV1 ovarian.
Assay [9] has as its system NCI/ADR-RES ovarian.
For assay [10], the system named is HCC-2998 colon.

Several values for one entry are separate records, joined by “and”; a condition that tells them apart may be missing. Equal values may be shown once.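 Five compound concentrations were applied to cells in 96-well plates for 48 hours; endpoints were derived by simple linear interpolation of the resulting dose-response curve. GI50 marks 50% less growth. TGI: total growth inhibition.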

Regarding `COc1cccc2c1C(=O)c1c(O)c3c(c(O)c1C2=O)CC(O)(C(C)=O)CC3OC1CC(N)C(O)C(C)O1` (stereo not given), the GI50 in assay [1] was 0.0176 µg/mL; in [2] it was 0.0317 µg/mL; in assay [3], 0.0185 µg/mL; in assay [4], 0.0242 µg/mL; in assay [5], 0.0159 µg/mL; in [6], 0.0205 µg/mL. In addition, the values for the GI50 in assay [7], in assay [9] and in assay [10] were 0.824 µg/mL, 3.52 µg/mL and 0.243 µg/mL, respectively. Further, the TGI in assay [1] was 0.1 µg/mL; in assay [2] it was 0.287 µg/mL; in [3], 0.216 µg/mL; in [4], 1.22 µg/mL; in assay [5], 0.165 µg/mL; in assay [6], 0.393 µg/mL. For the same compound, the TGI in assay [7] stood at 7.86 µg/mL; in assay [8], 1.68 µg/mL; in assay [9], 25 µg/mL; in assay [10] it was 0.912 µg/mL.
Consider `O=C(O)CSCc1cccc2ccccc12`, for which the TGI in assay [1], in [2], in [3], in assay [4], in assay [5] and in [6] was more than 100 µM in each case. Further, the TGI in [7], in assay [8] and in assay [9] was more than 100 µM each time.
In the case of `COc1cccc([C@H]2CC(=O)c3cc4c(cc3N2)OCO4)c1`, the GI50 is 0.0763 µM in [1]; 0.0608 µM in [5]; 0.0434 µM in assay [7]; 0.036 µM in assay [9]; 0.0283 µM in assay [10]. The TGI in assay [1] was more than 100 µM; in assay [2] it was 0.698 µM; in assay [3], more than 100 µM; in assay [4] it was 0.425 µM; in assay [5], 1.01 µM; in [7] it was more than 100 µM. The compound further gave a TGI in [10] of 0.115 µM.
As for `COc1cc2c(cc1OC)C13CCN4C=C5CCOC6CC(=O)N2C1C6C5CC43` (stereo not given), the TGI in [1], in [2], in [3], in [4], in [5] and in assay [6] was more than 100 µM in each case. The TGI in [7], in assay [8] and in assay [9] was more than 100 µM in each case.
Regarding `COc1cc(-c2nn3c(/C=C4/C(=O)Nc5ccccc54)c(-c4ccc(C)cc4)nc3s2)cc(OC)c1OC`, the GI50 in assay [1] is 4.98 µM; in [2] it was 10.2 µM; in [3], 3.13 µM; in [6] it was 3.71 µM; in assay [7], 2.68 µM; in assay [8] it was 4.75 µM. The figures for the GI50 in assay [9] and in assay [10] were 3.05 µM and more than 100 µM, respectively. Also, the TGI is 23.7 µM in [1]; 37.5 µM in assay [2]; more than 100 µM in [3]; more than 100 µM in assay [6]; more than 100 µM in assay [7]; more than 100 µM in assay [8]. In addition, the TGI in [9] and in [10] was more than 100 µM in each case.
For the compound `C=C(CNC(=O)Nc1ccc(-c2ccccc2)cc1)c1ccc(C(=O)Nc2ccccc2N)cc1`, the GI50 in [1] is more than 100 µM; in [2] it was 15 µM; in assay [3] it was more than 100 µM; in assay [4] it was more than 100 µM; in [5], 20.4 µM; in assay [6], 58.9 µM. The values for the GI50 in assay [7], in assay [9] and in assay [10] were 70.4 µM, 58.3 µM and more than 100 µM, respectively. Further, the TGI was more than 100 µM in [1]; 99 µM in [2]; more than 100 µM in [3]; more than 100 µM in assay [4]; more than 100 µM in assay [5]; more than 100 µM in [6]. Moreover, the TGI in [7], in assay [9] and in [10] was more than 100 µM throughout.
Regarding `CCSc1nnc2c(-c3ccccc3)n[nH]c2n1`, the TGI in assay [1], in assay [2], in [3], in assay [4], in assay [5] and in assay [6] was more than 100 µM in each case. The TGI in assay [7], in [8] and in assay [9] was more than 100 µM throughout.
Take `O=C(c1ccc2ccccc2c1O)N1CCCCC1`: the TGI in [1] was more than 100 µM; in [3] it was more than 100 µM; in assay [4] it was more than 100 µM; in assay [5], 95.9 µM; in [6], more than 100 µM; in assay [7], more than 100 µM. The TGI in assay [8], in [9] and in assay [10] was more than 100 µM in each case.
Consider `NS(=O)(=O)c1ccc(NC(=O)c2ccc(NC3=C(Cl)C(=O)N(Cc4ccccc4)C3=O)cc2)cc1`, for which the GI50 in [1] was 13.7 µM; in [2], 1.91 µM; in [3], 18.4 µM; in assay [4], 5.92 µM; in assay [6] it was 10.2 µM; in assay [7], 13.7 µM. Moreover, the values for the GI50 in assay [8] and in assay [9] were 3 µM and 19.6 µM, respectively. Besides, the TGI in assay [1] was 26.6 µM; in assay [2], 4.78 µM; in assay [3], more than 100 µM; in assay [4] it was 17 µM; in [6], more than 100 µM; in assay [7], 69.4 µM. Also, the TGI in assay [8] was more than 100 µM; in assay [9], 43.3 µM.
For the compound `O=[As](O)(O)c1ccc(NCc2ccccc2)cc1`, the TGI in assay [1], in assay [2], in assay [3], in assay [4], in assay [5] and in assay [6] was more than 100 µM throughout. In addition, the TGI in [7], in assay [8] and in assay [9] was more than 100 µM throughout.
Take `Cc1cc(C)nc(NC(N)=NCCc2ccccc2)n1`: the GI50 was 4.94 µM in assay [1]; 6.02 µM in [2]; 2.35 µM in assay [3]; 3.02 µM in assay [4]; 6.45 µM in assay [5]; 3.69 µM in assay [6]. Also, the GI50 is 5.09 µM in [7], 31 µM in assay [9] and 8.41 µM in assay [10]. Also, the TGI was more than 100 µM in assay [1]; 65.9 µM in [2]; 43.6 µM in [3]; more than 100 µM in assay [4]; more than 100 µM in assay [5]; 34.8 µM in assay [6]. Moreover, the TGI in assay [7] was more than 100 µM; in assay [9], more than 100 µM; in assay [10], 30.6 µM.
As to `N#Cc1cc(C#N)c(Cl)nc1N`, the TGI in [1], in assay [3], in assay [4], in assay [5], in assay [6] and in [7] was more than 10 µM in each case. Further, the TGI in assay [8], in assay [9] and in assay [10] was more than 10 µM throughout.
As to `O=C(Nc1ccc(Cl)cc1Cl)c1ccc(NC2=C(Cl)C(=O)N(Cc3ccccc3)C2=O)cc1`, the GI50 in [1] is 18.9 µM; in assay [2], 31.6 µM; in assay [3], 23.4 µM; in assay [5], 2.84 µM; in [6], 12.8 µM; in assay [7] it was 16.8 µM. The GI50 in [8] was 12.2 µM. In addition, the TGI in assay [1] is 33.7 µM; in assay [2], more than 100 µM; in assay [3], more than 100 µM; in assay [5], 9.04 µM; in assay [6] it was 25.4 µM; in [7] it was more than 100 µM. The same compound came in with a TGI in assay [8] of more than 100 µM.
In the case of `C[n+]1c(/C=C\C=C\N2CCCCC2)sc2ccccc21`, the GI50 was 4.07 µM in assay [1]; 0.2 µM in assay [3]; 0.321 µM in assay [4]; 0.0691 µM in assay [5]; 0.384 µM in assay [6]; 10.9 µM in [7]. Moreover, the values for the GI50 in assay [8], in assay [9] and in assay [10] were 0.84 µM, 37.6 µM and 0.451 µM, respectively. Further, the TGI in [1] was more than 53.4 µM; in assay [3] it was 2.72 µM; in assay [4], 11.7 µM; in assay [5], 1.09 µM; in assay [6], 5.01 µM; in assay [7], 49.2 µM. The TGI is 33.8 µM in assay [8], more than 100 µM in assay [9] and 14.1 µM in assay [10].
For `COc1cc2c(/C=N\N=C(N)N)c(Cl)[nH]c2cc1C`, the GI50 in [1] was 11.1 µM; in assay [2], 21.4 µM; in [3], 2.96 µM; in [5] it was 10.5 µM; in assay [6] it was 15.4 µM; in assay [7], 18 µM. Besides, the GI50 was 17.5 µM in assay [8], 23.3 µM in assay [9] and 2.5 µM in assay [10]. Moreover, the TGI in assay [1] is 23.6 µM; in assay [2] it was more than 100 µM; in assay [3], 9.12 µM; in assay [5], 25 µM; in assay [6] it was 38.6 µM; in [7], 34.1 µM. In addition, the TGI is 49.9 µM in assay [8], 50.5 µM in assay [9] and 5.67 µM in assay [10].
Turning to `CC1=NN(C(=O)c2ccccc2O)C(=O)/C1=C/c1ccc([N+](=O)[O-])cc1`, the GI50 in assay [1] was 0.545 µM; in [2], 2.03 µM; in assay [3], 0.222 µM; in assay [4], 4.22 µM; in assay [5], 0.784 µM; in assay [6], 1.44 µM. Also, the results for the GI50 in assay [7], in [8] and in [9] were 0.932 µM, 0.44 µM and 0.449 µM, respectively. Also, the TGI in assay [1] is more than 100 µM; in assay [2] it was 7.06 µM and 12.9 µM; in [3], more than 100 µM; in [4], more than 100 µM; in assay [5], more than 100 µM; in assay [6] it was more than 100 µM.
Take `O=P([O-])(O)OP(=O)([O-])O.[NH-][C@H]1CCCC[C@@H]1[NH-].[OH-].[OH-].[Pt+4]`: the GI50 was 16.6 µM in [1]; 25 µM in assay [3]; 59.6 µM in assay [4]; more than 100 µM in assay [5]; 22.7 µM in assay [6]; 39.9 µM in [7]. The GI50 in assay [8] is 21.8 µM; in assay [9], 22.7 µM; in [10], 28.8 µM. In addition, the TGI in assay [1] is 42.1 µM; in assay [3], 61.4 µM; in assay [4], more than 100 µM; in assay [5], more than 100 µM; in assay [6] it was 63.6 µM; in [7], more than 100 µM. The TGI was 60.4 µM in [8], 78.1 µM in [9] and 85.2 µM in assay [10].
For `CC(C)(C)OC(=O)NCCNC1=CC(=O)c2nc3ccccc3c3ccnc1c23`, the GI50 in [1] was 21.5 µM; in [2], 18.3 µM; in [3], 25.8 µM; in [4], 17.9 µM; in [6], 16.6 µM; in [7], 19.3 µM. Besides, the figures for the GI50 in assay [8] and in assay [9] were 24.6 µM and 23.3 µM, respectively. Also, the TGI was 76.8 µM in assay [1]; 44.8 µM in [2]; more than 100 µM in [3]; 43.8 µM in assay [4]; more than 100 µM in [6]; 47.9 µM in [7]. Further, the TGI in assay [8] came to 77.3 µM; in assay [9], 74.5 µM.
As to `O=S(=O)(Nc1ncccn1)c1ccc(N=Nc2ccc(O)c3ncccc23)cc1`, the GI50 in assay [1] is 5.18 µM; in [2], 5 µM; in assay [4], 22.6 µM; in assay [5], 3.94 µM; in assay [6], 3.6 µM; in assay [7], 4.05 µM. Moreover, the GI50 in assay [8] was 4.37 µM; in [9] it was 5.37 µM; in assay [10], 12.2 µM. The TGI in assay [1] came to 24.4 µM; in assay [2] it was 25.7 µM; in assay [4], 78 µM; in assay [5] it was 25.2 µM; in assay [6], 27.2 µM; in assay [7], 22.5 µM. The TGI worked out at 33 µM in [8], 51.8 µM in assay [9] and 29 µM in assay [10].
